According to article PMC10261806, “Development of lentil peptides with potent antioxidant, antihypertensive, and antidiabetic activities along with umami taste” (Food Science & Nutrition, 2023):

Target: T1, rat intestinal α-glucosidase
T1 construct: gene Si; native commercial rat intestinal preparation (Sigma I1630, usually intestinal acetone powder)
Test: p-nitrophenyl-α-D-glucopyranoside hydrolysis, absorbance at […] nm
Format: biochemical
Conditions: 5 mM PNPG stock, pH 6.8-6.9, 37 °C, 10 min preincubation; positive control

- IC50 of inhibitory activity / α-Glucosidase: 510 ± 70 µg/mL
Compound: C[C@H]1O[C@H](O[C@H]2[C@H](O)[C@@H](O)[C@@H](O[C@H]3[C@H](O)[C@@H](O)C(O)O[C@@H]3CO)O[C@@H]2CO)[C@H](O)[C@@H](O)[C@@H]1N[C@H]1C=C(CO)[C@@H](O)[C@H](O)[C@H]1O (stereo partly shown) [acarbose]
